Here are results for one molecule from PMC6704710, “Preclinical evaluation of 3D185, a novel potent inhibitor of FGFR1/2/3 and CSF-1R, in FGFR-dependent and macrophage-dominant cancer models” (Journal of Experimental & Clinical Cancer Research : CR, 2019).

Each structure is given as a SMILES string.

Common to all, as to experiment: Eurofins kinase panel
Assay type in all cases: biochemical
Conditions in all cases: read-out: Inhibition rate (%)

For one test, the target named is T1, NEK1(h) (Homo sapiens, UniProt Q96PY6).
T1 construct: purchased Eurofins (KinaseProfiler)
T1 sequence (Q96PY6 1-1258): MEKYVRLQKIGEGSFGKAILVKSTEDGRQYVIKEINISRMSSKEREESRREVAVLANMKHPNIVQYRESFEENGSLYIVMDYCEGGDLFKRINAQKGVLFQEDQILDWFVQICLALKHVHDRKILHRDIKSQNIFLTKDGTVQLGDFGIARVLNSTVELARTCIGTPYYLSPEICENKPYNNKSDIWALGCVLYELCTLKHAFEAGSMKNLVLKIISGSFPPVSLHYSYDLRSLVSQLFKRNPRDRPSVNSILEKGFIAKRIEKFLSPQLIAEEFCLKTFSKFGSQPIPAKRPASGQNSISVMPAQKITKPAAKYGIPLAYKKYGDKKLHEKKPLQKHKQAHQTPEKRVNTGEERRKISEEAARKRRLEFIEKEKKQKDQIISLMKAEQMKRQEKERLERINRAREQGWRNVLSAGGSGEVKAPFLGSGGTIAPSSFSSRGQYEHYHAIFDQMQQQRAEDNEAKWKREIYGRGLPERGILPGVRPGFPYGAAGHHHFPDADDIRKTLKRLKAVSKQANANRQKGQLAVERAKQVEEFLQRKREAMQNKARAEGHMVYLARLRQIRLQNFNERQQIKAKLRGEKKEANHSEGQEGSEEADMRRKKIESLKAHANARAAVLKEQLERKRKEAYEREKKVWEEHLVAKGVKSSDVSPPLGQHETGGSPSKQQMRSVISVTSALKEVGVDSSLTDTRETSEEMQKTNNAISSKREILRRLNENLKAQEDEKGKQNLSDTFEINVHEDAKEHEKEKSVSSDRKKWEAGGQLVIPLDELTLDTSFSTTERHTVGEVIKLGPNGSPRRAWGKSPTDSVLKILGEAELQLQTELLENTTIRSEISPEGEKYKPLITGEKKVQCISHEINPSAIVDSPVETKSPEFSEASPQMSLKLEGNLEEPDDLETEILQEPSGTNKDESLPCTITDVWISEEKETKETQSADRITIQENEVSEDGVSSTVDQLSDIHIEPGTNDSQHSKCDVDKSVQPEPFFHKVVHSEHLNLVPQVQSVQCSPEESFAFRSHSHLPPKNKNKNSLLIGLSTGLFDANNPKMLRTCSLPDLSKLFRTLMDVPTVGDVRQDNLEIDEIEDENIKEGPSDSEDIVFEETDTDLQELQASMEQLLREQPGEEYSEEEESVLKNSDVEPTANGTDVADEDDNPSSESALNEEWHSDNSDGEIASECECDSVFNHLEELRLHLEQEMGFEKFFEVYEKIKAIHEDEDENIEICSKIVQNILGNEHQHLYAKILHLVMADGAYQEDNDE

Another test deals with T2, MST1(h) (Homo sapiens, UniProt Q13043).
T2 construct: purchased Eurofins (KinaseProfiler)
T2 sequence (Q13043 1-487): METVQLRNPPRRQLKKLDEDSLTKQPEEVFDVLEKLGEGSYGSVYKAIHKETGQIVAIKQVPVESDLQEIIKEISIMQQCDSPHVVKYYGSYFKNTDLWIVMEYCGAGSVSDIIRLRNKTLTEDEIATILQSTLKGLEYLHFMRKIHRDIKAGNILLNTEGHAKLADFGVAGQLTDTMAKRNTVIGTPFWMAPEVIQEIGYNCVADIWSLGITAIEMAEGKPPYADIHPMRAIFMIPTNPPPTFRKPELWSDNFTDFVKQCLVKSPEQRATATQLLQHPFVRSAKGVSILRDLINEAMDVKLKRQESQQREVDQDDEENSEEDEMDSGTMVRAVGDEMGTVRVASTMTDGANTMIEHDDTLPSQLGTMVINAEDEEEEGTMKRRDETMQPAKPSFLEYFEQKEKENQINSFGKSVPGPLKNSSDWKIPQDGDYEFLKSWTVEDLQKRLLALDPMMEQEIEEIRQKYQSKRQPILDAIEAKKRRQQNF

The target in a further test is T3, EphA5(h) (Homo sapiens, UniProt P54756).
T3 construct: purchased Eurofins (KinaseProfiler)
T3 sequence (P54756 25-1037): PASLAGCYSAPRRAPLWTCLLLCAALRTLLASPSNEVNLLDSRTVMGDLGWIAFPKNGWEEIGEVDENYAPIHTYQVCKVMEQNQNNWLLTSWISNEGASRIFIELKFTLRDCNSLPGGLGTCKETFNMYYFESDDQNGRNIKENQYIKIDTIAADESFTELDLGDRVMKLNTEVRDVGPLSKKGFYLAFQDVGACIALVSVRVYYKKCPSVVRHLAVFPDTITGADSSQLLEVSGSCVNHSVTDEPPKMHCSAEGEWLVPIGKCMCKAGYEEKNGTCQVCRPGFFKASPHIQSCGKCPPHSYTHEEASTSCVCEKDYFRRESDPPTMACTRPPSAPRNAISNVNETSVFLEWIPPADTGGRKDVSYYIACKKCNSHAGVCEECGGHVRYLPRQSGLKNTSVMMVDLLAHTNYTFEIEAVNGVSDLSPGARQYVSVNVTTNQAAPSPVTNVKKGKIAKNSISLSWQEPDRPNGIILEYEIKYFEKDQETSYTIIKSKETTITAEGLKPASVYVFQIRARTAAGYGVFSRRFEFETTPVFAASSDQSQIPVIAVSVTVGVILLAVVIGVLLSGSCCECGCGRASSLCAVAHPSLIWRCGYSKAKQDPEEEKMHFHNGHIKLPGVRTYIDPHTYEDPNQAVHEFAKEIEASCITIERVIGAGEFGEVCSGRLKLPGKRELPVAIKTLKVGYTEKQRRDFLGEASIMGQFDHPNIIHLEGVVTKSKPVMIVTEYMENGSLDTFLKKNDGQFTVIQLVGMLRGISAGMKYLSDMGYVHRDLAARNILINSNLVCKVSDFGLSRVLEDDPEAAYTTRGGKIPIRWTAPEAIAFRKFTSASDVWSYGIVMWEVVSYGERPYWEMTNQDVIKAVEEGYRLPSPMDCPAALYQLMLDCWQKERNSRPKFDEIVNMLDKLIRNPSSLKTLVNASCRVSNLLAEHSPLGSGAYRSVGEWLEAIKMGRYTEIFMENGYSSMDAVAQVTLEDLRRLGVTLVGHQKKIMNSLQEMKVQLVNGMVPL

The target of another test is T4, Lck(h) activated (Homo sapiens, UniProt P06239).
T4 construct: purchased Eurofins (KinaseProfiler)
T4 sequence (P06239 whole entry): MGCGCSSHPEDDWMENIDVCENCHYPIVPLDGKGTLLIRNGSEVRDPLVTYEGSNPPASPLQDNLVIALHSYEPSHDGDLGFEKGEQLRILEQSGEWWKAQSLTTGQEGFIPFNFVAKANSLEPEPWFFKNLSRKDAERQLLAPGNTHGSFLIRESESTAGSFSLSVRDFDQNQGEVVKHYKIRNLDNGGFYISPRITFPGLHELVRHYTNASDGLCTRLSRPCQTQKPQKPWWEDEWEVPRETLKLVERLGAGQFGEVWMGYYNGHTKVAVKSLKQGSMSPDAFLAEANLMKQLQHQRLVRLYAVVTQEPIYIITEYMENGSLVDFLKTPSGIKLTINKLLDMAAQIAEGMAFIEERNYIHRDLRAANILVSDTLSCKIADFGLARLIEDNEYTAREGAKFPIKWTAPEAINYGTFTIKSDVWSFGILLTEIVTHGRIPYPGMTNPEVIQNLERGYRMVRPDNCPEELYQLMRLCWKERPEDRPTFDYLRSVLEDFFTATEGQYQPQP

A further test concerns the target T5, Src(1-530)(h) (Homo sapiens, UniProt P12931).
T5 construct: purchased Eurofins (KinaseProfiler)

T5 sequence (P12931 1-530 limits assumed): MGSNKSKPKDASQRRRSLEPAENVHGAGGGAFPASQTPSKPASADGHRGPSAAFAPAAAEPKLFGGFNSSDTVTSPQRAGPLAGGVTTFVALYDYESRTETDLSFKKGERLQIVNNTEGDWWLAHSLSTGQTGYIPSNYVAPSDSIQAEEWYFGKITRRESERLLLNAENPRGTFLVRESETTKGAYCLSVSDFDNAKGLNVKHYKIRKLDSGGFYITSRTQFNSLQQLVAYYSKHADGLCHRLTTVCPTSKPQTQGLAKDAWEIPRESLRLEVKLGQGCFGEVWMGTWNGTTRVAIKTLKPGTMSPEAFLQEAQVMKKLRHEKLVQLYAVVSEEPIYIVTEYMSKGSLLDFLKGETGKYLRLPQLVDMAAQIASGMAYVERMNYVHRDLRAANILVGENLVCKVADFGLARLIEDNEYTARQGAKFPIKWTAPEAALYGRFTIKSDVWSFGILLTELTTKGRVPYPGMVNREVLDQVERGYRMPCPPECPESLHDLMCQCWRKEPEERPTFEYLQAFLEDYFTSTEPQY

As to `COc1cc(OC)c(Cl)c(-c2ccc3c(NC(=O)c4ccc(N5CCNC(C)(C)C5)cc4)n[nH]c3n2)c1Cl` [3D185], the inhibition – broadly, the share of the control response that was lost under treatment – at 0.01 µM on NEK1(h) (10 nM) came out at 5%; at MST1(h) (10 nM) it was 2%; on EphA5(h) (10 nM), 11%; on Lck(h) activated (10 nM) it was 16%; on Src(1-530)(h) (10 nM) it was 4%. Also, the inhibition at 0.1 µM on NEK1(h) (100 nM) was 3%; on MST1(h) (100 nM) it was 11%; on EphA5(h) (100 nM), 10%; on Lck(h) activated (100 nM), 59%; on Src(1-530)(h) (100 nM) it was 30%. The inhibition at 1 µM was determined as 11% on NEK1(h) (1000 nM); 32% on MST1(h) (1000 nM); 13% at EphA5(h) (1000 nM); 92% at Lck(h) activated (1000 nM); 82% at Src(1-530)(h) (1000 nM).
